Patent US20250188118A1, “LIQUID PHASE PEPTIDE SYNTHESIS METHODS” (AMGEN INC., priority 2023, published 2025)
≈ marks a conversion by molar mass, not a printed value.

Experiments:
[1] = C18 tag solubility in screening solvents (slurry agitated overnight, supernatant assayed by calibrated HPLC); type: physicochemical; conditions: organic solvent or mixture, thermodynamic from solid, 20 °C
Protocol: Provided in this section is an analysis of the solubility of the C18 tag in various organic solvents. All starting materials are either commercially available from Sigma-Aldrich, Oakwood Chemicals, ChemPep Inc., CombiBlocks, or similar vendors, unless otherwise noted, or known in the art and may be synthesized by employing known procedures using ordinary skill.
(3,4,5-trioctadecoxyphenyl)methanol (200 mg) was measured out into a series of 1-dram vials. 1 mL of a screening solvent was added to its corresponding 1-dram vial. The slurry vials were placed on a shaker plate set to 20° C. and agitated overnight. Following agitation, the slurries were transferred to centrifuge tubes and the supernatant was isolated. 100 μL of the isolated supernatant was diluted in 10 mL THF to provides solutions for HPLC analysis using the Agilent 1290 Infinity II system with a Cortecs UPLC C8 1.6 μm 2, 1×150 mm column with a dilution factor of 100. A typical run through the HPLC instrument used a column temperature of 30° C.; an injection volume of 1 μL; a method length of 15 min; a flow rate of 0.3 mL/min; UV Detection: 220 nm; Mobile Phase A: 0.1% TFA in water; Mobile Phase B: 0.1% TFA in ACN; HPLC Gradient: 0 min—95:5 (A:B), 10 min—5:95 (A:B), 13 min—95:5 (A:B). The sample solutions were assayed on a calibrated LC system, and the corresponding C18 tag concentrations are reported below.

[2] = in water at 23° C.; cited from earlier work

For `CCCCCCCCCCCCCCCCCCOc1cc(CO)cc(OCCCCCCCCCCCCCCCCCC)c1OCCCCCCCCCCCCCCCCCC` [C18 Tag, (3,4,5-trioctadecoxyphenyl)methanol], the solubility ([1]; solvent 2-Me-THF) was 172 mg/mL (≈ 189 mM), the solubility ([1]; solvent CPME) was 6.8 mg/mL (≈ 7.44 mM) and the solubility ([1]; solvent Heptanes) was 1.63 mg/mL (≈ 1.78 mM). The solubility ([1]; solvent MTBE) was 43.8 mg/mL (≈ 48 mM), the solubility ([1]; solvent PhMe) was 57.8 mg/mL (≈ 63.3 mM) and the solubility ([1]; solvent THF) was ≥ 200 mg/mL. The solubility ([1]; solvent iPrOAc) was 1.81 mg/mL (≈ 1.98 mM).

For `CC1CCCO1` (centres unmarked) [Example 2-MeTHF, 2-methyltetrahydrofuran], the miscibility in water [2] is given as 14 g/100 g.
